Source: patent publication US20220213061A9, “HETEROCYCLIC COMPOUNDS FOR MODULATING NR2F6” (TES Pharma S.r.l., priority 2020, published 2022)
Structures can show the parent of a compound that is named as a salt.

Target: T1, recombinant human NR2F6 protein (Homo sapiens, UniProt P10588)
T1 sequence (P10588 1-404): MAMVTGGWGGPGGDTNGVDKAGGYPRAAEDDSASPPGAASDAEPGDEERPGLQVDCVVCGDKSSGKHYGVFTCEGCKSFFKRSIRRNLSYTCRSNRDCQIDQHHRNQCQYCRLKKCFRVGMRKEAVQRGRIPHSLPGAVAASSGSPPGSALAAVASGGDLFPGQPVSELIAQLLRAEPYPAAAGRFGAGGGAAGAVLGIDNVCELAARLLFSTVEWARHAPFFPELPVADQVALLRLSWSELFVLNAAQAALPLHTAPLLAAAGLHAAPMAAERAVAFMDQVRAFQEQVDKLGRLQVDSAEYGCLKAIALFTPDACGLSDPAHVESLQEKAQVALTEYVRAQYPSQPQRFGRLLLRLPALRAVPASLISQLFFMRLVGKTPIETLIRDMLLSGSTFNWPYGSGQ
Experiment: Biochemical NR2F6 binding assay (EnSpire label-free)
Settings: label-free binding to immobilized purified recombinant human NR2F6; ligands 1 nM to 100 uM, 1% DMSO
Description: Purified recombinant human NR2F6 protein was dissolved in immobilization buffer at pH 4.5 and then immobilized in EnSpire-LFB High-Sensitivity User-Activated Plates at the concentration of 50 μg/well plate and left in incubation for 16 h at 4° C. Wells with only immobilization buffer were used as negative control to check the protein coating efficiency. NR2F6 ligands were resuspended in DMSO at the concentration of 10 mM, then dispensed into a plate containing assay buffer at concentrations ranging from 1 nM to 100 uM using an HP-dispenser. DMSO was normalized at the 1% of volume of each well. The final readings were taken over a period of 30 minutes. The label-free responses were measured as shifts in reflected wavelength and are expressed in picometers (pm). Results were analyzed using the EnSpire label-free user interface software, and EC50 and graphs were generated using GraphPad PRISM software. In the tables below, A is <1 μM; B is 1 to 10 μM; C is 10 to 50 μM; and D is >50 μM.

SMILES | EC50
O=C(N[C@H]1C[C@H](Oc2cccnc2)C1)[C@H]1CNC[C@@H]1c1ccccc1 (racemic) [Compound I-101, (±)-trans-N-[trans-3-(Pyridyn-3-yloxy)cyclobutyl]-4-phenylpyrrolidine-3-carboxamide dihydrochloride] | 10 to 50 µM
Cc1ccc(O[C@H]2C[C@H](NC(=O)[C@H]3CNC[C@@H]3c3ccccc3)C2)cn1 (racemic) [Compound I-102, (±)-trans-N-{trans-3-[(6-Methylpyridin-3-yl)oxy]cyclobutyl}-4-phenylpyrrolidine-3-carboxamide dihydrochloride] | 1 to 10 µM
O=C(Nc1cccc(Oc2ccc(C(F)(F)F)nc2)c1)[C@H]1CNC[C@@H]1c1ccccc1 (racemic) [Compound I-104, (±)-trans-4-Phenyl-N-(3-{[6-(trifluoromethyl)pyridin-3-yl]oxy}phenyl) pyrrolidine-3-carboxamide dihydrochloride] | < 1 µM
Cc1ccc(Oc2cccc(NC(=O)[C@H]3CNC[C@@H]3c3ccccc3)c2)cn1 (racemic) [Compound I-105, (±)-trans-4-Phenyl-N-{3-[(6-methylpyridin-3-yl)oxy]phenyl}pyrrolidine-3-carboxamide dihydrochloride] | 1 to 10 µM
O=C(Nc1cccc(Nc2cccnc2)c1)[C@H]1CNC[C@@H]1c1ccccc1 (racemic) [Compound I-106, (±)-trans-4-Phenyl-N-[3-(pyridin-3-ylamino)phenyl]pyrrolidine-3-carboxamide dihydrochloride] | < 1 µM
O=C(Nc1ccc(Nc2cccnc2)cc1)[C@H]1CNC[C@@H]1c1ccccc1 (racemic) [Compound I-107, (±)-trans-4-Phenyl-N-[4-(pyridin-3-ylamino)phenyl]pyrrolidine-3-carboxamide dihydrochloride] | > 50 µM
Cc1ccc(O[C@H]2C[C@H](NC(=O)[C@@H]3CNC[C@H]3c3ccccc3)C2)cc1 (racemic) [Compound I-115, (±)-trans-N-[trans-3-(4-Methylphenoxy)cyclobutyl]-4-phenylpyrrolidine-3-carboxamide hydrochloride] | 1 to 10 µM
O=C(N[C@H]1C[C@H](Oc2ccc(F)nc2)C1)[C@@H]1CNC[C@H]1c1ccccc1 (racemic) [Compound I-116, (±)-trans-N-{trans-3-[(6-Fluoropyridin-3-yl)oxy]cyclobutyl}-4-phenylpyrrolidine-3-carboxamide dihydrochloride] | 10 to 50 µM
O=C(Nc1cccc2cnccc12)C1=C(c2ccccc2)CNC1 [Compound I-1, N-(Isoquinolin-5-yl)-4-phenyl-2,5-dihydro-1H-pyrrole-3-carboxamide] | 10 to 50 µM
O=C(Nc1cccc2cnccc12)[C@H]1CNC[C@@H]1c1ccccc1 [Compound I-29, (3R,4S)—N-(Isoquinolin-5-yl)-4-phenylpyrrolidine-3-carboxamide] | < 1 µM
Cc1nccc2c(NC(=O)[C@H]3CNC[C@@H]3c3ccccc3)cccc12 [Compound I-30, (3R,4S)—N-(1-Methylisoquinolin-5-yl)-4-phenylpyrrolidine-3-carboxamide dihydrochloride] | < 1 µM
O=C(NCc1ccncc1)[C@H]1CNC[C@@H]1c1ccccc1 [Compound I-31, (3R,4S)-4-Phenyl-N-(pyridin-4-ylmethyl)pyrrolidine-3-carboxamide dihydrochloride] | 1 to 10 µM
O=C(Nc1csc2cnccc12)[C@H]1CNC[C@@H]1c1ccccc1 [Compound I-32, (3R,4S)-4-Phenyl-N-(thieno[2,3-c]pyridin-3-yl)pyrrolidine-3-carboxamide dihydrochloride] | 1 to 10 µM
O=C(NCc1ccccc1)[C@H]1CNC[C@@H]1c1ccccc1 [Compound I-33, (3R,4S)—N-Benzyl-4-phenylpyrrolidine-3-carboxamide hydrochloride] | 10 to 50 µM
CN1CCC(CNC(=O)[C@H]2CNC[C@@H]2c2ccccc2)CC1 [Compound I-35, (3R,4S)—N-[(1-Methylpiperidin-4-yl)methyl]-4-phenylpyrrolidine-3-carboxamide dihydrochloride] | > 50 µM
